Results as given in ChEMBL document CHEMBL1201862, “PubChem BioAssay data set” (2004).
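Each compound was tested at five concentrations against cells in 96-well plates for 48 hours. Abbreviation: GI50, concentration required for 50% inhibition of growth.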 Calls of active or inactive are those of the source. Cut-off read from the data, not from the text of the source: active = GI50 up to about 1.1 µM and inactive = higher.

What was measured:
Experiment in all cases: growth of human tumour cells (NCI), 48 h
[1] = tested on: 786-0
[2] = tested on: A498
[3] = tested on: A549
[4] = tested on: ACHN
[5] = tested on: CCRF-CEM
[6] = tested on: COLO 205
[7] = tested on: DU-145
[8] = tested on: EKVX
[9] = tested on: HCC 2998
[10] = tested on: HCT-116
[11] = tested on: HCT-15
[12] = tested on: HL-60
[13] = tested on: HOP-62
[14] = tested on: HOP-92
[15] = tested on: HT-29
[16] = tested on: Hs-578T
[17] = tested on: IGROV-1
[18] = tested on: K562
[19] = tested on: KM12
[20] = tested on: LOX IMVI
[21] = tested on: M14
[22] = tested on: MCF7
[23] = tested on: MDA-MB-231
[24] = tested on: MDA-MB-435
[25] = tested on: MDA-N
[26] = tested on: MOLT-4
[27] = tested on: Malme-3M
[28] = tested on: NCI-H226
[29] = tested on: NCI-H23
[30] = tested on: NCI-H460
[31] = tested on: NCI-H522
[32] = tested on: NCI/ADR-RES
[33] = tested on: OVCAR-3
[34] = tested on: OVCAR-5
[35] = tested on: OVCAR-8
[36] = tested on: PC-3
[37] = tested on: RPMI-8226
[38] = tested on: RXF 393
[39] = tested on: SF-268
[40] = tested on: SF-295
[41] = tested on: SF-539
[42] = tested on: SK-MEL-28
[43] = tested on: SK-MEL-2
[44] = tested on: SK-MEL-5
[45] = tested on: SK-OV-3
[46] = tested on: SN12C
[47] = tested on: SNB-19
[48] = tested on: SNB-75
[49] = tested on: SW-620
[50] = tested on: T47D
[51] = tested on: TK-10
[52] = tested on: U-251
[53] = tested on: UACC-257
[54] = tested on: UO-31

Measured: GI50

COc1cc(OC)c(OC)cc1/C=C/c1nc2ccccc2s1
inactive: [1] > 100 µM | [2] 86.5 µM | [3] > 100 µM | [4] > 100 µM | [5] > 100 µM | [6] > 100 µM | [7] > 100 µM | [8] 69.7 µM | [9] > 100 µM | [10] 25.2 µM | [12] 5.52 µM | [13] 29.1 µM | [14] 6.35 µM | [15] 38.7 µM | [16] 67 µM | [17] > 100 µM | [18] 5.42 µM | [19] > 100 µM | [20] > 100 µM | [21] 17.6 µM | [22] 82.4 µM | [23] > 100 µM | [24] 3.1 µM | [25] 17.5 µM | [26] 34.2 µM | [27] > 100 µM | [28] > 100 µM | [29] 86.5 µM | [30] > 100 µM | [31] 40.6 µM | [32] > 100 µM | [33] > 100 µM | [34] > 100 µM | [35] > 100 µM | [36] 5.78 µM | [37] 31 µM | [38] 23.3 µM | [39] > 100 µM | [40] 67 µM | [41] > 100 µM | [42] > 100 µM | [43] > 100 µM | [44] > 100 µM | [45] > 100 µM | [46] > 100 µM | [47] > 100 µM | [48] 91.4 µM | [49] > 100 µM | [50] 8.45 µM | [51] 98.2 µM | [52] > 100 µM | [53] > 100 µM | [54] 47.2 µM
> 100 µM: [11]
